Laboratory results taken from patent US20230364061A1, “THIAZOLIDINE DERIVATIVES FOR INHIBITING CAV3.2-USP5 INTERACTIONS” (Zymedyne Therapeutics Inc., priority 2020, published 2023).

Key:
[1] = test system: recombinant USP5 (long or short splice variant); assay: USP5 deubiquitinase (DUB) activity assay; format: biochemical; conditions: recombinant long or short form of USP5, fluorescence over time (FIG. 8)
Procedure: FIG. 8 examines the effect of exemplary compound II-1 on in vitro deubiqutinase activity of USP5. Here recombinant USP5 (either the long or the short splice variant) is incubated with a ubiquitinated substrate, and deubiquitination is measured via a fluorescence readout as a function of time.
To rule out the possibility that exemplary compound II-1 might mediate its analgesic effects by altering the deubiquitinase (DUB) activity of USPS rather than by disrupting the interactions with the channel, a DUB assays was conducted (FIG. 8). Here, a ubiquitinated substrate (ubiquitin-rhodamine110-glycine) is incubated with recombinant long or short forms of USP5, and deubiquitination of the substrate as a function of time is measured via a fluorescence readout. Both the long form and the short form of USP5 lead to deubiquitination of the substrate, as evident from an increasing and plateauing fluorescence signal (528 nm emission in response to 485 nm excitation). The commercially available DUB inhibitor Degrasyn which is used as a positive control prevents this.

[2] = test system: formalin induced nocifensive responses; assay: Formalin-induced pain assay; format: in vivo; conditions: mice, intrathecal delivery, both phases (FIG. 5)
Procedure: Formalin was injected into the hindpaw of a mouse, and the time that the mouse spent licking and biting its paw was determined. There are two phases of these nocifensive behavioral responses—phase I occurs immediately after formalin injection and reflects an acute response, phase II occurs approximately thirty minutes after formalin injection and reflects inflammatory pain. II-1 inhibited the duration of both phases in a dose dependent manner. […] Formalin injection into the hindpaw mediates nocifensive responses (paw licking, biting). There is an initial phase that reflects an acute responses to formalin injection, followed by a quiescent period and a second phase of nocifensive behaviors that reflects inflammatory pain. The duration of the responses is reflective of the amount of pain. […] The same doses were then used in a chronic inflammatory pain assay (i.e. CFA).

[3] = target: T1, USP5-Cav3.2 interaction (recombinant USP5 binding to immobilized Cav3.2 domain III-IV linker peptides) (Homo sapiens, UniProt P45974); assay: Cav3.2-USP5 ELISA assay; conditions: for Percent Inhibition: Cav3.2-USP5 ELISA of Example 1, concentration not given
T1 sequence (P45974 1-858): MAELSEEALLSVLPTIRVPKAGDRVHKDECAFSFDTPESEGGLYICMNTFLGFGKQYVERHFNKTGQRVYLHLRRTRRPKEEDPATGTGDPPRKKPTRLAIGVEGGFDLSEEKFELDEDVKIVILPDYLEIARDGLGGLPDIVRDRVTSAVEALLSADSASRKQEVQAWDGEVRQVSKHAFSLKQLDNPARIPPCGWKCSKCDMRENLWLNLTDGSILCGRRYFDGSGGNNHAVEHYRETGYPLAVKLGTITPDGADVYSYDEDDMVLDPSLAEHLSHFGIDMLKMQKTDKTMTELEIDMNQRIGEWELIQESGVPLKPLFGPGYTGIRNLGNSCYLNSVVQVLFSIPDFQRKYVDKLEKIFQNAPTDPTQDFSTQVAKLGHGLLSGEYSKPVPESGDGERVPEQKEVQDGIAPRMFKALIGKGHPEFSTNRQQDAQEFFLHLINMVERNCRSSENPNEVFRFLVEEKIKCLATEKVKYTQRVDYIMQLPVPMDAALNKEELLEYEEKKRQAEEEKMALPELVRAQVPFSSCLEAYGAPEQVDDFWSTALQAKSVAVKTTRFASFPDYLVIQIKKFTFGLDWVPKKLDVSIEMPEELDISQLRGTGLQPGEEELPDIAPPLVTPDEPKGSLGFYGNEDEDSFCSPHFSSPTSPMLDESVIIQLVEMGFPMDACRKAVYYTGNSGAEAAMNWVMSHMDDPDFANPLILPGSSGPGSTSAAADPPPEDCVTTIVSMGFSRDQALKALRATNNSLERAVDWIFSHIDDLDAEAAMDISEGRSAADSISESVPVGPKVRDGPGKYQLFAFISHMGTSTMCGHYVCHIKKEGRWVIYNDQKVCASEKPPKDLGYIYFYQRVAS
Text: FIG. 3 is a schematic of the high throughput ELISA assay used to screen the exemplary compound of the applications. Here the Cav3.2 III-1V linker is immobilized and then recombinant USP5 is allowed to bind. Binding is detected via antibodies conjugated to horseradish peroxidase for a fluorescent readout. Compounds are applied and a reduction in fluorescence is indicative of a disruption of USP5-Cav3.2 interactions.
A high throughput ELISA assay was used to screen the exemplary compounds of the applications (FIG. 3). The ELISA is based on the binding of recombinant USP5 to immobilized Cav3.2 domain […] linker peptides. Binding interactions were detected using USP5 antibodies, and a secondary antibody conjugated to horseradish peroxidase, leading to a fluorescence readout. The ELISA was converted into a high through-put format 384 well plate. Multiple compound libraries were screened for small organic molecules that disrupt the USP5—Cav3.2 interaction. A number of hits were identified at the standard screening concentration, and the dose dependence of hits was investigated. Select actives were subjected to a secondary biochemical assays based on co-immunoprecipitations of USP5 and Cav3.2 from mouse neuronal tissue.
In the ELISA assay from Example 1, compound II-1 was added at varying concentrations, and the ability of II-1 to inhibit the USP5-Cav3.2 interaction examined. The percentage of inhibition as a function of drug concentration could be fitted using the Hill equation.

[4] = test system: CFA induced thermal hypersensitivity in Cav3.2-/- mice; assay: CFA thermal hypersensitivity in Cav3.2 null mice; format: in vivo; conditions: 45 minutes after administration (FIG. 7)
Procedure: FIG. 7 compares the effects of exemplary compound II-1 on CFA mediated thermal hypersensitivity in wild type mice and in mice lacking Cav3.2 channels (45 minutes after administration of the compound). […] Cav3.2^−/− mice have compensatory mechanisms that lead to increased thermal hypersensitivity in response to CFA even though Cav3.2 channels are absent.

[5] = target: T2, association of USP5 and Cav3.2 channels (Mus musculus, UniProt P56399); assay: Co-immunoprecipitation of USP5 with Cav3.2 from brain lysate; format: binding; conditions: 1 uM compound, whole brain lysates, n=5 (FIG. 4)
T2 construct: using whole brain lysates and probed for USP5; from tissue; host or cells: mouse whole brain homogenate/lysate
T2 sequence (P56399 1-858): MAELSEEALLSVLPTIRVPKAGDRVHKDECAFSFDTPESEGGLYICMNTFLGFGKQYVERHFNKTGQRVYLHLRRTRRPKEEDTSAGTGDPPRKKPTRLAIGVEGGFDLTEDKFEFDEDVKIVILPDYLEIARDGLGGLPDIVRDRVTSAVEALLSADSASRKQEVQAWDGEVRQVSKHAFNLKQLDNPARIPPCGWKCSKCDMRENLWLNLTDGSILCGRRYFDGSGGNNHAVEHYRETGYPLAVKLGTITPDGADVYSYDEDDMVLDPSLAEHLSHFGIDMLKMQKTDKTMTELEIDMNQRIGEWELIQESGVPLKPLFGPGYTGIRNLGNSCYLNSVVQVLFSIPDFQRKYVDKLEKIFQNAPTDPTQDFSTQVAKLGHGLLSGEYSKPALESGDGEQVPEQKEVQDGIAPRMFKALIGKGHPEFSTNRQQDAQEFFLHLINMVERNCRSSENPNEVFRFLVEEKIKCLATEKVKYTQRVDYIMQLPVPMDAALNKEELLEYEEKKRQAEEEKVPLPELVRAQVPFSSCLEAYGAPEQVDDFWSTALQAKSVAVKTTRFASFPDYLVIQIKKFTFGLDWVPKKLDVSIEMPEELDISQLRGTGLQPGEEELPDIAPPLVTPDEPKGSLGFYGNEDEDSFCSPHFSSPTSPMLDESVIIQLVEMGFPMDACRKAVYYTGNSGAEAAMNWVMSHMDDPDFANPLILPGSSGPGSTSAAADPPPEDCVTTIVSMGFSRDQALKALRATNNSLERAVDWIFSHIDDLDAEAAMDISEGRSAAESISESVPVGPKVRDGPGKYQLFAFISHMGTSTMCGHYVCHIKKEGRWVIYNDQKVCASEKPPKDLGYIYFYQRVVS
Procedure: FIG. 4 is a graph showing the results of the of immunoprecipitation assay with Cav3.2 channels and a rabbit 3.2 polyclonal antibody using whole brain lysates and probed for USP5 (n=5). Quantifications were normalized to bound USP5 to Cav3.2 IP/alpha-tubulin. 1 uM of exemplary compounds II-1 and II-2 were used in the incubation. 5 uM of a positive control compound was used in the incubation.
A co-immunoprecipitation assay was implemented as a secondary screen for actives derived from the compound library screen. Moause brain homogenate was prepared, and the tissue containing was incubated with a rabbit Cav3.2 polyclonal antibody to immunoprecipitate Cav3.2 channel complexes. The precipitates were run on a Western blot and probed with an antibody against USP5 (n=5). Band intensities for bound USP5 were quantified and normalized to alpha-tubulin (FIG. 4). 1 μM of exemplary compounds II-1 and II-2 were used in the incubation. 5 μM of a control compound identified in a previous library screen was used as a positive control.

[6] = test system: CFA induced thermal hypersensitivity; assay: Complete Freund's Adjuvant (CFA) model of chronic inflammatory pain, thermal hypersensitivity; format: in vivo, mice
Procedure: The latency to paw withdrawal in response to radiate heat to the paw decreases after CFA, and II-1 reverses this hypersensitivity in a dose dependent manner, indicating a strong analgesic effect of II-1. […] CFA injection into the hind paw leads to long lasting (weeks) mechanical and thermal hypersensitivity of the hind paw that is reflective of chronic inflammatory pain states. Thermal hypersensitivity is assessed by applying a radiant heat source to the hind paw of the animal and measuring the time between application of the heat source and the withdrawal of the paw. In CFA treated animals, the withdrawal latencies are dramatically shortened, and reflective of thermal hypersensitivity (i.e. thermal pain responses). […] Two asterisks indicate statistical significance at the 0.01 level, three asterisks indicate statistical significance at the 0.001 level relative to CFA+vehicle. FIG. 7 compares the effects of exemplary compound II-1 on CFA mediated thermal hypersensitivity in wild type mice and in mice lacking Cav3.2 channels (45 minutes after administration of the compound). […] Cav3.2^-/- mice have compensatory mechanisms that lead to increased thermal hypersensitivity in response to CFA even though Cav3.2 channels are absent.

[7] = test system: diabetic, visceral, inflammatory and neuropathic pain; conditions: hits of an initial CDRD active compound library screen; cited from earlier work

CCC[C@H](NC(=O)/C(C#N)=C/c1cccc(Br)n1)c1ccccc1 [Degrasyn, reference compound]
deubiquitination of ubiquitin-rhodamine110-glycine by USP5 (fluorescence readout) [1]: inhibits this fluorescence signal

CC(O)C(NCC1SC(=S)NC1=O)C(=O)O (stereo not drawn) [II-1]
duration of nocifensive responses (paw licking, biting), phase I and phase II [2]: response time is shortened in a dose dependent manner | Percent Inhibition [3]: 100% | dose-response of percent inhibition in the Cav3.2-USP5 ELISA ([3]; varying concentrations, fitted with the Hill equation (FIG. 9)): dose dependence of the effect | thermal paw withdrawal latency after CFA, Cav3.2 knockout mice [4]: no longer able to reverse CFA induced thermal hypersensitivity | USP5 bound to Cav3.2 IP, normalized to alpha-tubulin [5]: disrupt the association of USP5 and Cav3.2 channels in neuronal tissue | deubiquitination of ubiquitin-rhodamine110-glycine by USP5 (fluorescence readout) [1]: does not mediate DUB inhibition | thermal paw withdrawal latency after CFA ([6]; mice, intrathecal delivery, dose response (FIG. 6)): shortened latencies are reversed in a dose dependent manner | thermal paw withdrawal latency after CFA, wild type mice ([6]; wild type Cav3.2+/+ mice, 45 minutes after administration (FIG. 7)): reversed the CFA-induced reduction in thermal paw withdrawal latencies

CC(CO)(CO)NCC1SC(=S)NC1=O (stereo not drawn) [II-2]
Percent Inhibition [3]: 100% | USP5 bound to Cav3.2 IP, normalized to alpha-tubulin [5]: disrupt the association of USP5 and Cav3.2 channels in neuronal tissue | deubiquitination of ubiquitin-rhodamine110-glycine by USP5 (fluorescence readout) [1]: fail to inhibit deubiquitination

CC(C)C(NCC1SC(=S)NC1=O)C(=O)O (stereo not drawn) [II-3]
Percent Inhibition [3]: 100%

CC(C)CC(NCC1SC(=S)NC1=O)C(=O)O (stereo not drawn) [II-4]
Percent Inhibition [3]: 100%

CCC(C)C(NCC1SC(=S)NC1=O)C(=O)O (stereo not drawn) [II-5]
Percent Inhibition [3]: 86%

NCCCCC(NCC1SC(=S)NC1=O)C(=O)O (stereo not drawn) [II-6]
Percent Inhibition [3]: 87%

O=C(O)CN(CC(=O)O)CC1SC(=S)NC1=O (stereo not drawn) [II-7]
Percent Inhibition [3]: 85%

O=C(O)CCNCC1SC(=S)NC1=O (stereo not drawn) [II-8]
Percent Inhibition [3]: 82%

O=C1NC(=S)SC1CNCCCO (stereo not drawn) [II-9]
Percent Inhibition [3]: 6%

CC(C)CCC(CCC(C)C)NCC1SC(=S)NC1=O (stereo not drawn) [II-10]
Percent Inhibition [3]: 28%

O=C1NC(=S)SC1CNC1(CCO)CCCCC1 (stereo not drawn) [II-11]
Percent Inhibition [3]: 75%

O=C1NC(=S)SC1CNC1CCCCC1 (stereo not drawn) [II-12]
Percent Inhibition [3]: 82%

O=c1c(O)c(-c2ccc(O)c(O)c2)oc2c(O)c(O)cc(O)c12 [gossypetin]
protection from pain in mice [7]: protect from diabetic, visceral, inflammatory and neuropathic pain in mice

Cc1ccc(C(=O)Nc2ccc(S(=O)(=O)O)c3cc(S(=O)(=O)O)cc(S(=O)(=O)O)c23)cc1NC(=O)c1cccc(NC(=O)Nc2cccc(C(=O)Nc3cc(C(=O)Nc4ccc(S(=O)(=O)O)c5cc(S(=O)(=O)O)cc(S(=O)(=O)O)c45)ccc3C)c2)c1 [suramin]
protection from pain in mice [7]: protect from diabetic, visceral, inflammatory and neuropathic pain in mice
